Measurements reported in US20140000883A1, “PETROLEUM RECOVERY PROCESS AND SYSTEM” (Shell Oil Company, priority 2012, published 2014).

How the values were obtained:
[1] = Viscosity of crude blended with dimethyl sulfide (rheometer); assay type: physicochemical
Procedure: The quality of dimethyl sulfide as an oil recovery agent based on the crude oil viscosity lowering properties of dimethyl sulfide was evalulated. Three crude oils having widely disparate viscosity characteristics—an African Waxy crude, a Middle Eastern asphaltic crude, and a Canadian asphaltic crude—were blended with dimethyl sulfide.
A control sample of each crude was prepared containing no dimethyl sulfide, and samples of each crude were prepared and blended with dimethyl sulfide to prepare crude samples containing increasing concentrations of dimethyl sulfide. Each sample of each of the crudes was heated to 60° C. to dissolve any waxes therein and to permit weighing of a homogeneous liquid, weighed, allowed to cool overnight, then blended with a selected quantity of dimethyl sulfide. The samples of the crude/dimethyl sulfide blend were then heated to 60° C. and mixed to ensure homogeneous blending of the dimethyl sulfide in the samples. Absolute (dynamic) viscosity measurements of each of the samples were taken using a rheometer and closed cup sensor assembly. Viscosity measurements of each of the samples of the West African waxy crude and the Middle Eastern asphaltic crude were taken at 20° C., 40° C., 60° C., 80° C., and then again at 20° C. after cooling from 80° C., where the second measurement at 20° C. is taken to measure the viscosity without the presence of waxes since wax formation occurs slowly enough to permit viscosity measurement at 20° C. without the presence of wax. Viscosity measurements of each of the samples of the Canadian asphaltic crude were taken at 5° C., 10° C., 20° C., 40° C., 60° C., 80° C., The measured viscosities for each of the crudes are shown in Tables 4, 5, and 6 below.

[2] = Extraction of mined oil sands with solvents (bitumen recovery); conditions: for Recovered Bitumen: not corrected for residual solvent;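 as to Recovered Bitumen: Bitumen mass includes 3 to 7 wt% residual solvent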
Procedure: The quality of dimethyl sulfide as an oil recovery agent based on the miscibility of dimethyl sulfide with a crude oil relative to other compounds was evaluated. […] Each oil sands sample was weighed and placed in a cellulose extraction thimble that was placed on a porous polyethylene support disk in a jacketed glass cylinder with a drip rate control valve. Each oil sands sample was then extracted with a selected solvent at a selected temperature (10° C. or 30° C.) in a cyclic contact and drain experiment, where the contact time ranged from 15 to 60 minutes. Fresh contacting solvent was applied and the cyclic extraction repeated until the fluid drained from the apparatus became pale brown in color.
The extracted fluids were stripped of solvent using a rotary evaporator and thereafter vacuum dried to remove residual solvent. […] The residual solids and extraction thimble were air dried, weighed, and then vacuum dried. […] Collectively, the weight of the solid or sample and thimble recovered after extraction plus the quantity of bitumen recovered after extraction divided by the weight of the initial oil sands sample plus the thimble provide the mass closure for the extractions.

CSC [Dimethyl Sulfide, dimethyl sulfide]
Viscosity ([1]; DMS 1.21 wt. %, 20° C.): 125.8 mPa s | Viscosity ([1]; DMS 1.21 wt. %, 20° C. after cooling from 80° C.): 100.1 mPa s | Viscosity ([1]; DMS 1.21 wt. %, 40° C.): 30.94 mPa s | Viscosity ([1]; DMS 1.21 wt. %, 60° C.): 14.66 mPa s | Viscosity ([1]; DMS 1.21 wt. %, 80° C.): 8.92 mPa s | Viscosity ([1]; DMS 1.3 wt. %, 20° C.): 1733.8 mPa s | Viscosity ([1]; DMS 1.3 wt. %, 20° C. after cooling from 80° C.): 1624.8 mPa s | Viscosity ([1]; DMS 1.3 wt. %, 40° C.): 334.5 mPa s | Viscosity ([1]; DMS 1.3 wt. %, 60° C.): 106.7 mPa s | Viscosity ([1]; DMS 1.3 wt. %, 80° C.): 44.6 mPa s | Viscosity ([1]; DMS 2.48 wt. %, 20° C.): 122.3 mPa s | Viscosity ([1]; DMS 2.48 wt. %, 20° C. after cooling from 80° C.): 89.23 mPa s | Viscosity ([1]; DMS 2.48 wt. %, 40° C.): 30.53 mPa s | Viscosity ([1]; DMS 2.48 wt. %, 60° C.): 13.66 mPa s | Viscosity ([1]; DMS 2.48 wt. %, 80° C.): 8.44 mPa s | Viscosity ([1]; DMS 2.6 wt. %, 20° C.): 1026.6 mPa s | Viscosity ([1]; DMS 2.6 wt. %, 20° C. after cooling from 80° C.): 881.1 mPa s | Viscosity ([1]; DMS 2.6 wt. %, 40° C.): 219.9 mPa s | Viscosity ([1]; DMS 2.6 wt. %, 60° C.): 76.5 mPa s | Viscosity ([1]; DMS 2.6 wt. %, 80° C.): 34.3 mPa s | Viscosity ([1]; DMS 5.03 wt. %, 20° C.): 78.37 mPa s | Viscosity ([1]; DMS 5.03 wt. %, 20° C. after cooling from 80° C.): 55.21 mPa s | Viscosity ([1]; DMS 5.03 wt. %, 40° C.): 20.24 mPa s | Viscosity ([1]; DMS 5.03 wt. %, 60° C.): 10.45 mPa s | Viscosity ([1]; DMS 5.03 wt. %, 80° C.): 6.55 mPa s | Viscosity ([1]; DMS 5.3 wt. %, 20° C.): 496.5 mPa s | Viscosity ([1]; DMS 5.3 wt. %, 20° C. after cooling from 80° C.): 503.5 mPa s | Viscosity ([1]; DMS 5.3 wt. %, 40° C.): 134.2 mPa s | Viscosity ([1]; DMS 5.3 wt. %, 60° C.): 52.2 mPa s | Viscosity ([1]; DMS 5.3 wt. %, 80° C.): 25.5 mPa s | Viscosity ([1]; DMS 7.6 wt. %, 20° C.): 288.0 mPa s | Viscosity ([1]; DMS 7.60 wt. %, 20° C.): 60.92 mPa s | Viscosity ([1]; DMS 7.6 wt. %, 20° C. after cooling from 80° C.): 290.0 mPa s | Viscosity ([1]; DMS 7.60 wt. %, 20° C. after cooling from 80° C.): 40.89 mPa s | Viscosity ([1]; DMS 7.6 wt. %, 40° C.): 89.4 mPa s | Viscosity ([1]; DMS 7.60 wt. %, 40° C.): 17.08 mPa s | Viscosity ([1]; DMS 7.6 wt. %, 60° C.): 37.4 mPa s | Viscosity ([1]; DMS 7.60 wt. %, 60° C.): 9.29 mPa s | Viscosity ([1]; DMS 7.6 wt. %, 80° C.): 19.3 mPa s | Viscosity ([1]; DMS 7.60 wt. %, 80° C.): 6.09 mPa s | Viscosity ([1]; DMS 8.01 wt. %, 20° C.): 5799 mPa s | Viscosity ([1]; DMS 8.01 wt. %, 40° C.): 982 mPa s | Viscosity ([1]; DMS 8.01 wt. %, 60° C.): 275 mPa s | Viscosity ([1]; DMS 8.01 wt. %, 80° C.): 106 mPa s | Viscosity ([1]; DMS 9.80 wt. %, 20° C.): 2760 mPa s | Viscosity ([1]; DMS 9.80 wt. %, 40° C.): 571 mPa s | Viscosity ([1]; DMS 9.80 wt. %, 60° C.): 173 mPa s | Viscosity ([1]; DMS 9.80 wt. %, 80° C.): 73 mPa s | Viscosity ([1]; DMS 9.95 wt. %, 20° C.): 44.70 mPa s | Viscosity ([1]; DMS 9.95 wt. %, 20° C. after cooling from 80° C.): 30.61 mPa s | Viscosity ([1]; DMS 9.95 wt. %, 40° C.): 13.03 mPa s | Viscosity ([1]; DMS 9.95 wt. %, 60° C.): 7.58 mPa s | Viscosity ([1]; DMS 9.95 wt. %, 80° C.): 5.04 mPa s | Viscosity ([1]; DMS 10.1 wt. %, 20° C.): 150.0 mPa s | Viscosity ([1]; DMS 10.1 wt. %, 20° C. after cooling from 80° C.): 150.5 mPa s | Viscosity ([1]; DMS 10.1 wt. %, 40° C.): 52.4 mPa s | Viscosity ([1]; DMS 10.1 wt. %, 60° C.): 24.5 mPa s | Viscosity ([1]; DMS 10.1 wt. %, 80° C.): 13.5 mPa s | Viscosity ([1]; DMS 14.81 wt. %, 5° C.): 1794 mPa s | Viscosity ([1]; DMS 14.81 wt. %, 10° C.): 1155 mPa s | Viscosity ([1]; DMS 14.81 wt. %, 20° C.): 548 mPa s | Viscosity ([1]; DMS 14.81 wt. %, 40° C.): 159 mPa s | Viscosity ([1]; DMS 14.81 wt. %, 60° C.): 64 mPa s | Viscosity ([1]; DMS 14.81 wt. %, 80° C.): 32 mPa s | Viscosity ([1]; DMS 15.13 wt. %, 20° C.): 23.96 mPa s | Viscosity ([1]; DMS 15.13 wt. %, 20° C. after cooling from 80° C.): 17.64 mPa s | Viscosity ([1]; DMS 15.13 wt. %, 40° C.): 8.32 mPa s | Viscosity ([1]; DMS 15.13 wt. %, 60° C.): 4.97 mPa s | Viscosity ([1]; DMS 15.13 wt. %, 80° C.): 3.38 mPa s | Viscosity ([1]; DMS 15.2 wt. %, 20° C.): 59.4 mPa s | Viscosity ([1]; DMS 15.2 wt. %, 20° C. after cooling from 80° C.): 60.7 mPa s | Viscosity ([1]; DMS 15.2 wt. %, 40° C.): 25.2 mPa s | Viscosity ([1]; DMS 15.2 wt. %, 60° C.): 13.6 mPa s | Viscosity ([1]; DMS 15.2 wt. %, 80° C.): 8.2 mPa s | Viscosity ([1]; DMS 19.30 wt. %, 20° C.): 15.26 mPa s | Viscosity ([1]; DMS 19.30 wt. %, 20° C. after cooling from 80° C.): 12.06 mPa s | Viscosity ([1]; DMS 19.30 wt. %, 40° C.): 6.25 mPa s | Viscosity ([1]; DMS 19.30 wt. %, 60° C.): 4.05 mPa s | Viscosity ([1]; DMS 19.30 wt. %, 80° C.): 2.92 mPa s | Viscosity ([1]; DMS 19.78 wt. %, 20° C.): 188 mPa s | Viscosity ([1]; DMS 19.78 wt. %, 40° C.): 69 mPa s | Viscosity ([1]; DMS 19.78 wt. %, 60° C.): 33 mPa s | Viscosity ([1]; DMS 19.78 wt. %, 80° C.): 19 mPa s | Viscosity ([1]; DMS 20.1 wt. %, 20° C.): 29.9 mPa s | Viscosity ([1]; DMS 20.1 wt. %, 20° C. after cooling from 80° C.): 31.0 mPa s | Viscosity ([1]; DMS 20.1 wt. %, 40° C.): 14.8 mPa s | Viscosity ([1]; DMS 20.1 wt. %, 60° C.): 8.7 mPa s | Viscosity ([1]; DMS 20.1 wt. %, 80° C.): 5.7 mPa s | Viscosity ([1]; DMS 29.88 wt. %, 5° C.): 113 mPa s | Viscosity ([1]; DMS 29.88 wt. %, 10° C.): 81 mPa s | Viscosity ([1]; DMS 29.88 wt. %, 20° C.): 51 mPa s | Viscosity ([1]; DMS 29.88 wt. %, 40° C.): 22 mPa s | Viscosity ([1]; DMS 29.88 wt. %, 60° C.): 13 mPa s | Viscosity ([1]; DMS 29.88 wt. %, 80° C.): 8 mPa s | Viscosity ([1]; DMS 39.61 wt. %, 5° C.): 23 mPa s | Viscosity ([1]; DMS 39.61 wt. %, 10° C.): 20 mPa s | Viscosity ([1]; DMS 39.61 wt. %, 20° C.): 14 mPa s | Viscosity ([1]; DMS 39.61 wt. %, 40° C.): 8 mPa s | Viscosity ([1]; DMS 39.61 wt. %, 60° C.): 6 mPa s | Viscosity ([1]; DMS 39.61 wt. %, 80° C.): 4 mPa s | lowering the viscosity of a crude oil ([1]; three crudes, wide range of initial viscosities): effective for significantly lowering the viscosity | recovering bitumen from an oil sand material, compared with the best known fluids ([2]; 10° C. and 30° C.): comparable | Weight Change ([2]; extraction at 10 C.): 16.9 g | Recovered Bitumen ([2]; extraction at 10 C.): 16.55 g | Weight Change ([2]; extraction at 30 C.): 16.7 g | Recovered Bitumen ([2]; extraction at 30 C.): 16.29 g
